According to ChEMBL document CHEMBL2440076, “New triarylpyrazoles as broad-spectrum anticancer agents: design, synthesis, and biological evaluation” (Eur J Med Chem, 2013):

How the values were obtained:
NCI-H322M = test: Growth inhibition of human NCI-H322M cells after 48 hrs by sulforhodamine B assay; type: functional
UO-31 = test: Growth inhibition of human UO31 cells assessed as cell growth at 10 uM after 48 hrs by sulforhodamine B assay; type: functional; conditions: UO-31, 48 h, read-out: Activity
ACHN = test: Growth inhibition of human ACHN cells assessed as cell growth at 10 uM after 48 hrs by sulforhodamine B assay; type: functional; conditions: read-out: Activity
SK-MEL-28 = test: Growth inhibition of human SK-MEL-28 cells after 48 hrs by sulforhodamine B assay; type: functional; conditions: SK-MEL-28, 48 h
M14 = test: Growth inhibition of human M14 cells assessed as cell growth at 10 uM after 48 hrs by sulforhodamine B assay; type: functional; conditions: M14, 48 h, read-out: Activity
BT-549 [1] = test: Growth inhibition of human BT549 cells after 48 hrs by sulforhodamine B assay; type: functional; conditions: BT-549, 48 h
CCRF-CEM = test: Growth inhibition of human CCRF-CEM cells after 48 hrs by sulforhodamine B assay; type: functional
COLO 205 [2] = test: Growth inhibition of human COLO205 cells after 48 hrs by sulforhodamine B assay; type: functional; conditions: COLO 205, 48 h
OVCAR-5 = test: Growth inhibition of human OVCAR5 cells assessed as cell growth at 10 uM after 48 hrs by sulforhodamine B assay; type: functional; conditions: OVCAR-5, 48 h, read-out: Activity
MDA-MB-231 [3] = test: Growth inhibition of human MDA-MB-231 cells assessed as cell growth at 10 uM after 48 hrs by sulforhodamine B assay; type: functional; conditions: MDA-MB-231, 48 h, read-out: Activity
NCI-H522 [4] = test: Growth inhibition of human NCI-H522 cells after 48 hrs by sulforhodamine B assay; type: functional; conditions: NCI-H522, 48 h
OVCAR-8 [5] = test: Growth inhibition of human OVCAR8 cells after 48 hrs by sulforhodamine B assay; type: functional; conditions: OVCAR-8, 48 h
HL-60(TB) = test: Growth inhibition of human HL-60(TB) cells after 48 hrs by sulforhodamine B assay; type: functional; conditions: HL-60, 48 h
BT-549 [6] = test: Growth inhibition of human BT549 cells assessed as cell growth at 10 uM after 48 hrs by sulforhodamine B assay; type: functional; conditions: BT-549, 48 h, read-out: Activity
HOP-92 = test: Growth inhibition of human HOP92 cells assessed as cell growth at 10 uM after 48 hrs by sulforhodamine B assay; type: functional; conditions: HOP-92, 48 h, read-out: Activity
SW-620 = test: Growth inhibition of human SW620 cells assessed as cell growth at 10 uM after 48 hrs by sulforhodamine B assay; type: functional; conditions: SW-620, 48 h, read-out: Activity
OVCAR-8 [7] = test: Growth inhibition of human OVCAR8 cells assessed as cell growth at 10 uM after 48 hrs by sulforhodamine B assay; type: functional; conditions: OVCAR-8, 48 h, read-out: Activity
CAKI-1 [8] = test: Growth inhibition of human CAKI-1 cells after 48 hrs by sulforhodamine B assay; type: functional; conditions: CAKI-1, 48 h
[9] = Growth inhibition of human NCI-ADR-RES cells assessed as cell growth at 10 uM after 48 hrs by sulforhodamine B assay; type: functional; conditions: read-out: Activity
[10] = Growth inhibition of human HCC2998 cells assessed as cell growth at 10 uM after 48 hrs by sulforhodamine B assay; type: functional; conditions: HCC 2998, 48 h, read-out: Activity
RPMI-8226 = test: Growth inhibition of human RPMI8226 cells after 48 hrs by sulforhodamine B assay; type: functional, cell-based; conditions: RPMI-8226, 48 h
SF-268 = test: Growth inhibition of human SF268 cells after 48 hrs by sulforhodamine B assay; type: functional; conditions: SF-268, 48 h
[11] = Growth inhibition of human Hs 578T cells after 48 hrs by sulforhodamine B assay; type: functional
TK-10 = test: Growth inhibition of human TK10 cells after 48 hrs by sulforhodamine B assay; type: functional; conditions: TK-10, 48 h
MDA-MB-435 = test: Growth inhibition of human MDA-MB-435 cells after 48 hrs by sulforhodamine B assay; type: functional, cell-based; conditions: MDA-MB-435, 48 h
COLO 205 [12] = test: Growth inhibition of human COLO205 cells assessed as cell growth at 10 uM after 48 hrs by sulforhodamine B assay; type: functional; conditions: COLO 205, 48 h, read-out: Activity
NCI-H522 [13] = test: Growth inhibition of human NCI-H522 cells assessed as cell growth at 10 uM after 48 hrs by sulforhodamine B assay; type: functional; conditions: NCI-H522, 48 h, read-out: Activity
UACC-62 = test: Growth inhibition of human UACC62 cells assessed as cell growth at 10 uM after 48 hrs by sulforhodamine B assay; type: functional; conditions: UACC-62, 48 h, read-out: Activity
MDA-MB-231 [14] = test: Growth inhibition of human MDA-MB-231 cells after 48 hrs by sulforhodamine B assay; type: functional; conditions: MDA-MB-231, 48 h
786-0 = test: Growth inhibition of human 786-0 cells after 48 hrs by sulforhodamine B assay; type: functional; conditions: 786-0, 48 h
Malme-3M = test: Growth inhibition of human MALME-3M cells after 48 hrs by sulforhodamine B assay; type: functional
K562 = test: Growth inhibition of human K562 cells assessed as cell growth at 10 uM after 48 hrs by sulforhodamine B assay; type: functional; conditions: K562, 48 h, read-out: Activity
MCF7 = test: Growth inhibition of human MCF7 cells assessed as cell growth at 10 uM after 48 hrs by sulforhodamine B assay; type: functional; conditions: MCF7, 48 h, read-out: Activity
CAKI-1 [15] = test: Growth inhibition of human CAKI-1 cells assessed as cell growth at 10 uM after 48 hrs by sulforhodamine B assay; type: functional; conditions: CAKI-1, 48 h, read-out: Activity
[16] = read-out: LC50 (the source's name)

COc1cc(-c2nn(-c3cccc(NC(=O)Nc4cc(C(F)(F)F)cc(C(F)(F)F)c4)c3)cc2-c2ccncc2)ccc1Cl
GI50 (NCI-H322M): 1020 nM
TGI (NCI-H322M): 3000 nM
CC50 (NCI-H322M; [16]): 29.9 µM
growth at 10 µM (UO-31): -29.2%
growth at 10 µM (ACHN): 10.6%
GI50 (SK-MEL-28): 851 nM
LC50 (SK-MEL-28): 3.38 µM
TGI (SK-MEL-28): 1700 nM
growth at 10 µM (M14): -42.1%
GI50 (BT-549 [1]): 1210 nM
LC50 (50% lethal concentration) (BT-549 [1]): 29.6 µM
TGI (BT-549 [1]): 3.06 µM
GI50 (CCRF-CEM): 498 nM
LC50 (CCRF-CEM): > 50 µM
TGI (CCRF-CEM): 2790 nM
GI50 (COLO 205 [2]): 847 nM
LC50 (concentration killing 50% of cells) (COLO 205 [2]): 2910 nM
TGI (COLO 205 [2]): 1570 nM
growth at 10 µM (OVCAR-5): 16.3%
growth at 10 µM (MDA-MB-231 [3]): -92%
GI50 (NCI-H522 [4]): 623 nM
LC50 (concentration killing 50% of cells) (NCI-H522 [4]): 6.56 µM
TGI (NCI-H522 [4]): 1800 nM
GI50 (OVCAR-8 [5]): 524 nM
TGI (OVCAR-8 [5]): 3.98 µM
CC50 (OVCAR-8 [5]; [16]): > 50 µM
GI50 (HL-60(TB)): 1180 nM
TGI (HL-60(TB)): > 50 µM
CC50 (HL-60(TB); [16]): > 50 µM
growth at 10 µM (BT-549 [6]): -8.96%
growth at 10 µM (HOP-92): -50.2%
growth at 10 µM (SW-620): -2.89%
growth at 10 µM (OVCAR-8 [7]): -12.7%
GI50 (CAKI-1 [8]): 993 nM
TGI (CAKI-1 [8]): 3.14 µM
CC50 (CAKI-1 [8]; [16]): 49.3 µM
growth at 10 µM [9]: 1.11%
growth at 10 µM [10]: -10.8%
GI50 (RPMI-8226): 307 nM
IC50 (RPMI-8226): 310 nM
TGI (RPMI-8226): > 50 µM
CC50 (RPMI-8226; [16]): > 50 µM
GI50 (SF-268): 978 nM
TGI (SF-268): 2430 nM
CC50 (SF-268; [16]): > 50 µM
GI50 [11]: 1040 nM
TGI [11]: 3.68 µM
CC50 [11, 16]: > 50 µM
GI50 (TK-10): 894 nM
TGI (TK-10): 2480 nM
CC50 (TK-10; [16]): 10.1 µM
GI50 (MDA-MB-435): 886 nM
IC50 (MDA-MB-435): 890 nM
TGI (MDA-MB-435): 1990 nM
CC50 (MDA-MB-435; [16]): 4.46 µM
growth at 10 µM (COLO 205 [12]): -98.7%
growth at 10 µM (NCI-H522 [13]): -34.4%
growth at 10 µM (UACC-62): -55.9%
GI50 (MDA-MB-231 [14]): 664 nM
LC50 (MDA-MB-231 [14]): 3000 nM
TGI (MDA-MB-231 [14]): 1410 nM
GI50 (786-0): 950 nM
TGI (786-0): 2020 nM
CC50 (786-0; [16]): 4.31 µM
GI50 (Malme-3M): 892 nM
LC50 (concentration killing 50% of starting cells) (Malme-3M): 7.68 µM
TGI (Malme-3M): 2170 nM
growth at 10 µM (K562): -10.7%
growth at 10 µM (MCF7): 1.74%
growth at 10 µM (CAKI-1 [15]): 18.5%

COc1cc(-c2nn(-c3cccc(NC(=O)c4ccc(Br)c(C)c4)c3)cc2-c2ccncc2)ccc1Cl
growth at 10 µM (UO-31): 53.8%
growth at 10 µM (ACHN): 70.2%
growth at 10 µM (M14): 74.7%
growth at 10 µM (OVCAR-5): 90.7%
growth at 10 µM (MDA-MB-231 [3]): 67%
growth at 10 µM (BT-549 [6]): 91.4%
growth at 10 µM (HOP-92): 51.3%
growth at 10 µM (SW-620): 82.7%
growth at 10 µM (OVCAR-8 [7]): 77.3%
growth at 10 µM [9]: 66.5%
growth at 10 µM [10]: 88.2%
growth at 10 µM (COLO 205 [12]): 76.2%
growth at 10 µM (NCI-H522 [13]): 45.1%
growth at 10 µM (UACC-62): 79.9%
growth at 10 µM (K562): 77.3%
growth at 10 µM (MCF7): 75%
growth at 10 µM (CAKI-1 [15]): 86.8%

COc1cc(-c2nn(-c3cccc(NC(=O)Nc4ccccc4)c3)cc2-c2ccncc2)ccc1Cl
growth at 10 µM (UO-31): 56.5%
growth at 10 µM (ACHN): 78.2%
growth at 10 µM (M14): 85.7%
growth at 10 µM (OVCAR-5): 91.3%
growth at 10 µM (MDA-MB-231 [3]): 88%
growth at 10 µM (BT-549 [6]): 89.9%
growth at 10 µM (SW-620): 82.8%
growth at 10 µM (OVCAR-8 [7]): 77.9%
growth at 10 µM [9]: 72.8%
growth at 10 µM [10]: 119%
growth at 10 µM (COLO 205 [12]): 92.4%
growth at 10 µM (NCI-H522 [13]): 67.4%
growth at 10 µM (UACC-62): 86.5%
growth at 10 µM (K562): 45.4%
growth at 10 µM (MCF7): 88.8%
growth at 10 µM (CAKI-1 [15]): 96.1%

O=C(Nc1cccc(-n2cc(-c3ccncc3)c(-c3ccc(Cl)c(O)c3)n2)c1)c1ccc(Cl)c(C(F)(F)F)c1
growth at 10 µM (UO-31): 81.2%
growth at 10 µM (ACHN): 86.6%
growth at 10 µM (M14): 82.5%
growth at 10 µM (OVCAR-5): 99.6%
growth at 10 µM (MDA-MB-231 [3]): 73.5%
growth at 10 µM (BT-549 [6]): 94.5%
growth at 10 µM (SW-620): 112%
growth at 10 µM (OVCAR-8 [7]): 96.8%
growth at 10 µM [9]: 104%
growth at 10 µM [10]: 123%
growth at 10 µM (COLO 205 [12]): 104%
growth at 10 µM (NCI-H522 [13]): 94.4%
growth at 10 µM (UACC-62): 100%
growth at 10 µM (K562): 105%
growth at 10 µM (MCF7): 93.9%
growth at 10 µM (CAKI-1 [15]): 100%

O=C(Nc1cccc(-n2cc(-c3ccncc3)c(-c3ccc(Cl)c(O)c3)n2)c1)c1ccccc1
growth at 10 µM (UO-31): 83.1%
growth at 10 µM (ACHN): 53.2%
growth at 10 µM (M14): 54.9%
growth at 10 µM (OVCAR-5): 115%
growth at 10 µM (MDA-MB-231 [3]): 63.2%
growth at 10 µM (BT-549 [6]): 83.4%
growth at 10 µM (HOP-92): 3.59%
growth at 10 µM (SW-620): 76.9%
growth at 10 µM (OVCAR-8 [7]): 50.9%
growth at 10 µM [9]: 62.7%
growth at 10 µM [10]: 76.8%
growth at 10 µM (COLO 205 [12]): 100%
growth at 10 µM (NCI-H522 [13]): 42.3%
growth at 10 µM (UACC-62): 68.3%
growth at 10 µM (K562): 60.7%
growth at 10 µM (MCF7): 62.6%
growth at 10 µM (CAKI-1 [15]): 90.3%
